Laboratory results: patent US12344610B2, “APOL1 inhibitors and methods of use” (Maze Therapeutics, Inc., priority 2022, dated 2025)

Target: T1, APOL1 G2 (Homo sapiens, UniProt O14791, DEL388-389)
T1 construct: expressed in transfected cells; host or cells: HEK293 T-REx clonal line stably expressing GCaMP6f (HEK T-REx/GCaMP6f/APOL1 G2 K6.3), doxycycline induced
T1 sequence (O14791 with tags, fused parts or gaps DEL388-389): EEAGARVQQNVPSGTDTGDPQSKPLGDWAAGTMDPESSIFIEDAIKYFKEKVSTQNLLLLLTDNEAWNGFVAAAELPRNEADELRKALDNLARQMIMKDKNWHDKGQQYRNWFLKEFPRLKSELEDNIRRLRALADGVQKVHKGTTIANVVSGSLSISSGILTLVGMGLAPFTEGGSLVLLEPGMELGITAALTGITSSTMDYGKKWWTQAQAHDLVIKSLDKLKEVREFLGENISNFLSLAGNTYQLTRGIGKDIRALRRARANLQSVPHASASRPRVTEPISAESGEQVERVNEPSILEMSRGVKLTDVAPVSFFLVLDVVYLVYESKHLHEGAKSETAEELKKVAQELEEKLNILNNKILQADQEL
Experiment: APOL1-mediated calcium transport (calcium influx) assay, HEK T-REx/GCaMP6f/APOL1 G2 K6.3 cells, FLIPR TETRA
Type: cell-based
Conditions: prevention of calcium influx; geometric mean of at least 2 assay runs; † = average of a technical replicate from a single assay run
In short: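 A HEK293 T-REx clone stably expressing GCaMP6f had APOL1 G2 induced with doxycycline (20 ng/mL solution added) for 6 h. Cells were then washed into Ca2+-free Tyrode's buffer (pH 7.4) and preincubated with compounds (duplicate 8-point) for 10 min at room temperature. Ca2+ injection to 5 mM final produced FLIPR GCaMP fluorescence, giving AC50 for influx inhibition (geometric mean, ≥2 runs).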

Row | Structure (SMILES) | AC50
1 | CS(=O)(=O)C1(c2ccc(OCCN3CCC4(CC3)C(=O)Nc3ccc(C#N)cc34)cc2)CC1 [Compound 101, 1′-{2-[4-(1-methanesulfonylcyclopropyl)phenoxy]ethyl}-2-oxo-1,2-dihydrospiro[indole-3,4′-piperidine]-5-carbonitrile] | 634 nM
2 | CS(=O)(=O)C1(c2ccc(OCCN3CCC4(CC3)C(=O)Nc3ccc(Cl)cc34)cc2)CC1 [Compound 102, 5-chloro-1′-{2-[4-(1-methanesulfonylcyclopropyl)phenoxy]ethyl}-1,2-dihydrospiro[indole-3,4′-piperidin]-2-one] | 671 nM
3 | CN1c2ccc(OCCN3CCC4(CC3)C(=O)Nc3ccc(Cl)cc34)cc2CCS1(=O)=O [Compound 103, 6-(2-{5-chloro-2-oxo-1,2-dihydrospiro[indole-3,4′-piperidin]-1′-yl}ethoxy)-1-methyl-3,4-dihydro-1H-2λ^6,1-benzothiazine-2,2-dione] | 591 nM
4 | CN1c2ccc(OCCN3CCC4(CC3)C(=O)Nc3ccc(C#N)cc34)cc2CCS1(=O)=O [Compound 104, 1′-{2-[(1-methyl-2,2-dioxo-3,4-dihydro-1H-2λ^6,1-benzothiazin-6-yl)oxy]ethyl}-2-oxo-1,2-dihydrospiro[indole-3,4′-piperidine]-5-carbonitrile] | 408 nM
5 | N#Cc1ccc2c(c1)C1(CCN(CCOc3ccc4c(c3)CCC(=O)N4CC(F)F)CC1)C(=O)N2 [Compound 105, 1′-(2-{[1-(2,2-difluoroethyl)-2-oxo-1,2,3,4-tetrahydroquinolin-6-yl]oxy}ethyl)-2-oxo-1,2-dihydrospiro[indole-3,4′-piperidine]-5-carbonitrile] | 392 nM
6 | O=C1CCc2cc(OCCN3CCC4(CC3)C(=O)Nc3ccc(Cl)cc34)ccc2N1CC(F)F [Compound 106, 5-chloro-1′-(2-{[1-(2,2-difluoroethyl)-2-oxo-1,2,3,4-tetrahydroquinolin-6-yl]oxy}ethyl)-1,2-dihydrospiro[indole-3,4′-piperidin]-2-one] | 756 nM
7 | CS(=O)(=O)c1ccc(OCCN2CCC3(CC2)C(=O)Nc2ccc(C#N)cc23)cc1C(F)(F)F [Compound 107, 1′-{2-[4-methanesulfonyl-3-(trifluoromethyl)phenoxy]ethyl}-2-oxo-1,2-dihydrospiro[indole-3,4′-piperidine]-5-carbonitrile] | 712 nM
8 | CS(=O)(=O)c1ccc(OCCN2CCC3(CC2)C(=O)Nc2ccc(Cl)cc23)cc1C(F)(F)F [Compound 108, 5-chloro-1′-{2-[4-methanesulfonyl-3-(trifluoromethyl)phenoxy]ethyl}-1,2-dihydrospiro[indole-3,4′-piperidin]-2-one] | 860 nM
9 | CS(=O)(=O)C1(c2ccc(OCCN3CCC4(CC3)C(=O)Nc3ccc(C#N)cc34)cc2)COC1 [Compound 109, 1′-{2-[4-(3-methanesulfonyloxetan-3-yl)phenoxy]ethyl}-2-oxo-1,2-dihydrospiro[indole-3,4′-piperidine]-5-carbonitrile] | 1190 nM
10 | Cc1cc(OCCN2CCC3(CC2)C(=O)Nc2ccc(Cl)cc23)ccc1S(C)(=O)=O [Compound 110, 5-chloro-1′-[2-(4-methanesulfonyl-3-methylphenoxy)ethyl]-1,2-dihydrospiro[indole-3,4′-piperidin]-2-one] | 772 nM
11 | Cc1cc(OCCN2CCC3(CC2)C(=O)Nc2ccc(C#N)cc23)ccc1S(C)(=O)=O [Compound 111, 1′-[2-(4-methanesulfonyl-3-methylphenoxy)ethyl]-2-oxo-1,2-dihydrospiro[indole-3,4′-piperidine]-5-carbonitrile] | 919 nM
12 | O=C1Nc2ccc(Cl)cc2C12CCN(CCOc1ccc(S(=O)(=O)C(F)F)cc1)CC2 [Compound 112, 5-chloro-1′-[2-(4-difluoromethanesulfonylphenoxy)ethyl]-1,2-dihydrospiro[indole-3,4′-piperidin]-2-one] | 746 nM
13 | N#Cc1ccc2c(c1)C1(CCN(CCOc3ccc(S(=O)(=O)C(F)F)cc3)CC1)C(=O)N2 [Compound 113, 1′-[2-(4-difluoromethanesulfonylphenoxy)ethyl]-2-oxo-1,2-dihydrospiro[indole-3,4′-piperidine]-5-carbonitrile] | 524 nM
14 | O=C1CCc2cc(OCCN3CCC4(CC3)C(=O)Nc3ccc(Cl)cc34)ccc2N1[C@H]1C[C@@H](O)C1 [Compound 114, 5-chloro-1′-[2-({2-oxo-1-[(cis)-3-hydroxycyclobutyl]-1,2,3,4-tetrahydroquinolin-6-yl}oxy)ethyl]-1,2-dihydrospiro[indole-3,4′-piperidin]-2-one] | 529 nM
15 | CN(c1c(F)cc(OCCN2CCC3(CC2)C(=O)Nc2ccc(Cl)cc23)cc1F)S(C)(=O)=O [Compound 127, N-[4-(2-{5-chloro-2-oxo-1,2-dihydrospiro[indole-3,4′-piperidin]-1′-yl}ethoxy)-2,6-difluorophenyl]-N-methylmethanesulfonamide] | 542 nM
16 | CN(c1c(F)cc(OCCN2CCC3(CC2)C(=O)Nc2ccc(C#N)cc23)cc1F)S(C)(=O)=O [Compound 128, N-[4-(2-{5-cyano-2-oxo-1,2-dihydrospiro[indole-3,4′-piperidin]-1′-yl}ethoxy)-2,6-difluorophenyl]-N-methylmethanesulfonamide] | 537 nM
17 | Cc1cc(OCCN2CCC3(CC2)C(=O)Nc2ccc(Cl)cc23)cc(C)c1S(C)(=O)=O [Compound 129, 5-chloro-1′-[2-(4-methanesulfonyl-3,5-dimethylphenoxy)ethyl]-1,2-dihydrospiro[indole-3,4′-piperidin]-2-one] | 352 nM
18 | Cn1c(=O)oc2cc(OCCN3CCC4(CC3)C(=O)Nc3ccc(Cl)cc34)ccc21 [Compound 131, 5-chloro-1′-{2-[(3-methyl-2-oxo-2,3-dihydro-1,3-benzoxazol-6-yl)oxy]ethyl}-1,2-dihydrospiro[indole-3,4′-piperidin]-2-one] | 464 nM
19 | Cn1c(=O)oc2cc(OCCN3CCC4(CC3)C(=O)Nc3ccc(C#N)cc34)ccc21 [Compound 132, 1′-{2-[(3-methyl-2-oxo-2,3-dihydro-1,3-benzoxazol-6-yl)oxy]ethyl}-2-oxo-1,2-dihydrospiro[indole-3,4′-piperidine]-5-carbonitrile] | 492 nM
20 | CS(=O)(=O)C1(c2c(F)cc(OCCN3CCC4(CC3)C(=O)Nc3ccc(Cl)cc34)cc2F)COC1 [Compound 136, 5-chloro-1′-{2-[3,5-difluoro-4-(3-methanesulfonyloxetan-3-yl)phenoxy]ethyl}-1,2-dihydrospiro[indole-3,4′-piperidin]-2-one] | 800 nM
21 | CC(c1c(F)cc(OCCN2CCC3(CC2)C(=O)Nc2ccc(C#N)cc23)cc1F)S(C)(=O)=O (stereo not shown) [Compound 137, 1′-{2-[3,5-difluoro-4-(1-methanesulfonylethyl)phenoxy]ethyl}-2-oxo-1,2-dihydrospiro[indole-3,4′-piperidine]-5-carbonitrile] | 597 nM
22 | Cc1cc(OCCN2CCC3(CC2)C(=O)Nc2ccc(C#N)cc23)cnc1S(C)(=O)=O [Compound 140, 1′-{2-[(6-methanesulfonyl-5-methylpyridin-3-yl)oxy]ethyl}-2-oxo-1,2-dihydrospiro[indole-3,4′-piperidine]-5-carbonitrile] | 807 nM
23 | CC(C)N1C(=O)Cc2cc(OCCN3CCC4(CC3)C(=O)Nc3ccc(C#N)cc34)ccc21 [Compound 144, 2-oxo-1′-(2-{[2-oxo-1-(propan-2-yl)-2,3-dihydro-1H-indol-5-yl]oxy}ethyl)-1,2-dihydrospiro[indole-3,4′-piperidine]-5-carbonitrile] | 708 nM
24 | CC(C)N1C(=O)Cc2cc(OCCN3CCC4(CC3)C(=O)Nc3ccc(Cl)cc34)ccc21 [Compound 145, 5-chloro-1′-(2-{[2-oxo-1-(propan-2-yl)-2,3-dihydro-1H-indol-5-yl]oxy}ethyl)-1,2-dihydrospiro[indole-3,4′-piperidin]-2-one] | 465 nM
25 | CN1Cc2cc(OCCN3CCC4(CC3)C(=O)Nc3ccc(Cl)cc34)ccc2C1=O [Compound 146, 5-chloro-1′-{2-[(2-methyl-1-oxo-2,3-dihydro-1H-isoindol-5-yl)oxy]ethyl}-1,2-dihydrospiro[indole-3,4′-piperidin]-2-one] | 279 nM
26 | CN=S(C)(=O)c1ccc(OCCN2CCC3(CC2)C(=O)Nc2ccc(Cl)cc23)cc1 (stereo not shown) [Compound 147, 5-chloro-1′-(2-{4-[methyl(methylimino)oxo-λ^6-sulfanyl]phenoxy}ethyl)-1,2-dihydrospiro[indole-3,4′-piperidin]-2-one] | 492 nM
27 | CN=S(C)(=O)c1ccc(OCCN2CCC3(CC2)C(=O)Nc2ccc(C#N)cc23)cc1 (stereo not shown) [Compound 150, 1′-(2-{4-[methyl(methylimino)oxo-λ^6-sulfanyl]phenoxy}ethyl)-2-oxo-1,2-dihydrospiro[indole-3,4′-piperidine]-5-carbonitrile] | 629 nM
28 | CN1CCc2cc(OCCN3CCC4(CC3)C(=O)Nc3ccc(Cl)cc34)ccc2S1(=O)=O [Compound 153, 6-(2-{5-chloro-2-oxo-1,2-dihydrospiro[indole-3,4′-piperidin]-1′-yl}ethoxy)-2-methyl-3,4-dihydro-2H-1λ^6,2-benzothiazine-1,1-dione] | 826 nM
